The values below come from US20240010684A1, “MASP INHIBITORY COMPOUNDS AND USES THEREOF” (BAYER AKTIENGESELLSCHAFT, priority 2020, published 2024).

In one test the target is human MASP1 (Homo sapiens (Human), UniProt P48740). Description: Biochemical human MASP1 assay (FRET substrate). The settings on record: Average IC50; recombinant human MASP1; read-out: human MASP1 IC50. An excerpt:
A truncated cDNA sequence of human MASP1 encoding the fragment corresponding to the amino acids 297-699 with a C-terminal His Tag and N-terminal Ig-kappa secretion signal (SEQ ID No: 2) was subcloned into the mammalian expression vector pcDNA3.1 (Invitrogen).
The MASP1 or MASP2 expression vectors were transfected into the HEK293 (ATCC No. CRL-1573) cell line using Lipofectamine LTX® Reagent (Thermo-Fischer), as described by the manufacturer. The mature form of the recombinant human MASP1 and MASP2 proteases were secreted into the culture medium. The MASP1 and MASP2 proteins were purified from the conditioned media by affinity chromatography on Ni-NTA Superflow resin (Qiagen) as described by the manufacturer.
2.2 Biochemical Human MASP1 Assay
Recombinant human MASP1 enzyme produced in the HEK 293 cells was diluted in the reaction buffer (50 mM HEPES pH 8,0; 100 mM NaCl; 0,01% CHAPS; 0.5 mM Gluthathione) to the concentration of 20 nM and 25 μl was transferred into each single well of 384-well white microtiter plate (Greiner Bio One 781075). 1 μl of the inhibitor compound solution (dissolved in DMSO, at the corresponding concentration) or pure DMSO as a control was added to the same wells. The enzymatic reaction was initiated by addition of 25 μl of 20 μM solution of the FRET substrate ABZ-[…]-Lys (Dnp)-NH2; (ABZ-2-aminobenzoyl; DNP 2,4-dinitrophenyl; custom synthesis by Jerini Peptide Technologies, Berlin) in the reaction buffer. The microtiter plate was incubated for 60-120 min at the temperature of 32 C. The increase of fluorescence intensity was measured in appropriate fluorescence plate reader (e.g. TECAN Ultra) using excitation wavelength of 320 nm and emission wavelength of 420 nm. IC50 values were calculated from percentage of inhibition of human MASP1 activity as a function of test compound concentration.

The target in another test is human MASP2 (Homo sapiens (Human), UniProt O00187). Description: Biochemical human MASP2 assay (FRET substrate). The settings on record: Average IC50; recombinant human MASP2; read-out: human MASP2 IC50. The source says: The MASP1 or MASP2 expression vectors were transfected into the HEK293 (ATCC No. CRL-1573) cell line using Lipofectamine LTX® Reagent (Thermo-Fischer), as described by the manufacturer. The mature form of the recombinant human MASP1 and M[…] were secreted into the culture medium. The MASP1 and M[…] were purified from the conditioned media by affinity chromatography on Ni-NTA Superflow resin (Qiagen) as described by the manufacturer. 2.3 Biochemical Human MASP2 Assay […] The enzymatic reaction was initiated by addition of 25 μl of 60 μM solution of the FRET substrate DABCYL-[…]; […] The microtiter plate was incubated for 60-120 min at the temperature of 32 C. The increase of fluorescence intensity was measured in appropriate fluorescence plate reader (e.g. TECAN Ultra) using excitation wavelength of 340 nm and emission wavelength of 490 nm. IC50 values were calculated from percentage of inhibition of human MASP2 activity as a function of test compound concentration.

Where a SMILES comes first, the peptide text is derived from it. Bridges are numbered along the chain shown (N, C = ends). [ ]: non-standard residue; d: D form. PEG4 = NCCOCCOCCOCCOCCC(=O)O; Dap = NC[C@H](N)C(=O)O; PEG2 = NCCOCCOCCC(=O)O; Ahx = NCCCCCC(=O)O

human MASP2, sequence (O00187 other isoform, or with tags, fused parts or gaps): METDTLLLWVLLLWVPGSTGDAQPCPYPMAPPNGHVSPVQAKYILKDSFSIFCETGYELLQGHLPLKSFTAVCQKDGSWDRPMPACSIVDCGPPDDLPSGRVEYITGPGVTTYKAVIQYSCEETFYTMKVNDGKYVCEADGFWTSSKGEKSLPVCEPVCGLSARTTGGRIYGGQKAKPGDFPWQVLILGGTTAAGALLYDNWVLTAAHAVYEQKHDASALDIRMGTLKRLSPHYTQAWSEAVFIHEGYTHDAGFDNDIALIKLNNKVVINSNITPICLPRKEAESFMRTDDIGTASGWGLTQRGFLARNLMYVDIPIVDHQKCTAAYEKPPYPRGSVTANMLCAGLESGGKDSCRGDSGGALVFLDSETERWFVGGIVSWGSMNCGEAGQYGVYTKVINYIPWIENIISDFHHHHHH
human MASP1, sequence (P48740 other isoform, or with tags, fused parts or gaps): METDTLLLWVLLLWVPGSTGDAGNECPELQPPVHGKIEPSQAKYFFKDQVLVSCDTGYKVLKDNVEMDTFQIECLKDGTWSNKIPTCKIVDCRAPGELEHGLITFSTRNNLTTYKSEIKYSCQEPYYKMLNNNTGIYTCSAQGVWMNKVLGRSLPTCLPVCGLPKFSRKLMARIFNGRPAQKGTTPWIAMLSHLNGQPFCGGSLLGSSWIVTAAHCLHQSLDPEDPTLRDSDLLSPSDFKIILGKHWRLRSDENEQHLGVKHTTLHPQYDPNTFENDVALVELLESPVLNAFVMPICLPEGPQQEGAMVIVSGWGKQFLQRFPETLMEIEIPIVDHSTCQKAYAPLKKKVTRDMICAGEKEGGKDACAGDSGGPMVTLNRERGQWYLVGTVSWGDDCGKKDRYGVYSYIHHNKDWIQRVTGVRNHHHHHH

By IC50 is commonly meant the concentration needed to halve the response being measured. As to `CC[C@H](C)[C@@H]1NC(=O)CNC(=O)CCOCCOCCOCCOCCNC(=O)[C@H](CC(=O)O)NC(=O)[C@@H]2CCCN2C(=O)[C@H]([C@@H](C)CC)NC(=O)[C@@H]2CSSC[C@H](NC1=O)C(=O)N[C@@H](CO)C(=O)N[C@@H](CCCNC(=N)N)C(=O)N[C@@H](CO)C(=O)N[C@@H](CC(C)C)C(=O)N1CCC[C@H]1C(=O)N1CCC[C@H]1C(=O)N[C@@H]([C@@H](C)CC)C(=O)N2` [Example 14] (cyclo(CIPD[PEG4]GICSRSLPPI); disulfide 1-8), the IC50 at human MASP1 amounted to 170 nM; at human MASP2, 240 nM.
On the same counts, the results for `CC[C@H](C)[C@@H]1NC(=O)CNC(=O)CNC(=O)[C@H](CC(=O)O)NC(=O)[C@@H]2CCCN2C(=O)[C@H]([C@@H](C)CC)NC(=O)[C@@H]2CSSC[C@H](NC1=O)C(=O)N[C@@H](CO)C(=O)N[C@@H](CCCNC(=N)N)C(=O)N[C@@H](CO)C(=O)N[C@@H](CC(C)C)C(=O)N1CCC[C@H]1C(=O)N1CCC[C@H]1C(=O)N[C@@H]([C@@H](C)CC)C(=O)N2` [Example 15, [(6S,9S,12S,15S,18R,21S,30S,32aS,38S,41R,44S,46aS,51aS)-21,38,44-tri[(2S)-butan-2-yl]-12-(3-carbamimidamidopropyl)-9,15-bis(hydroxymethyl)-6-(2-methylpropyl)-5,8,11,14,17,20,23,26,29,32,37,40,43,46,51-pentadecaoxopentacontahydro-1H-18,41-(methanodithiomethano)tripyrrolo[1,2-a:1′,2′-d:1″,2″-p][1,4,7,10,13,16, 19,22,25,28,31,34,37,40,43]pentadecaazacyclopentatetracontin-30-yl]acetic acid] (cyclo(CIPDGGICSRSLPPI); disulfide 1-8) are 120 nM and 300 nM.
As for `CC[C@H](C)[C@@H]1NC(=O)CNC(=O)CCCCCNC(=O)[C@@H](CC(=O)O)NC(=O)[C@@H]2CCCN2C(=O)[C@H]([C@@H](C)CC)NC(=O)[C@@H]2CSSC[C@H](NC1=O)C(=O)N[C@@H](CO)C(=O)N[C@@H](CCCNC(=N)N)C(=O)N[C@@H](CO)C(=O)N[C@@H](CC(C)C)C(=O)N1CCC[C@H]1C(=O)N1CCC[C@H]1C(=O)N[C@@H]([C@@H](C)CC)C(=O)N2` [Example 16, [(6S,9S,12S,15S,18R,21S,34R,36aS,42S,45R,48S,50aS,55aS)-21,42,48-tri[(2S)-butan-2-yl]-12-(3-carbamimidamidopropyl)-9,15-bis(hydroxymethyl)-6-(2-methylpropyl)-5,8,11,14,17,20,23,26,33,36,41,44,47,50,55-pentadecaoxotetrapentacontahydro-1H-18,45-(methanodithiomethano)tripyrrolo[2,1-f:2′,1′-r:2″,1″-u][1,4,7,10,13,16,19,22,25,28,31,34,37,40,43]pentadecaazacyclononatetracontin-34-yl]acetic acid] (cyclo([Ahx]GICSRSLPPICIP[dD]); disulfide 4-12), the concentration for half-maximal inhibition (IC50) was determined as 150 nM on human MASP1 and 370 nM on human MASP2.
On the same counts, the results for `CC[C@H](C)[C@@H]1NC(=O)CNC(=O)CNC(=O)[C@H](C)NC(=O)[C@@H](CC(=O)O)NC(=O)[C@@H]2CCCN2C(=O)[C@H]([C@@H](C)CC)NC(=O)[C@@H]2CSSC[C@H](NC1=O)C(=O)N[C@@H](CO)C(=O)N[C@@H](CCCNC(=N)N)C(=O)N[C@@H](CO)C(=O)N[C@@H](CC(C)C)C(=O)N1CCC[C@H]1C(=O)N1CCC[C@H]1C(=O)N[C@@H]([C@@H](C)CC)C(=O)N2` [Example 17] (cyclo(AGGICSRSLPPICIP[dD]); disulfide 5-13) are 26 nM and 88 nM.
As for `CC[C@H](C)[C@@H]1NC(=O)CNC(=O)CNC(=O)[C@H](C)NC(=O)[C@H](CC(=O)O)NC(=O)[C@@H]2CCCN2C(=O)[C@H]([C@@H](C)CC)NC(=O)[C@@H]2CSSC[C@H](NC1=O)C(=O)N[C@@H](CO)C(=O)N[C@@H](CCCNC(=N)N)C(=O)N[C@@H](CO)C(=O)N[C@@H](CC(C)C)C(=O)N1CCC[C@H]1C(=O)N1CCC[C@H]1C(=O)N[C@@H]([C@@H](C)CC)C(=O)N2` [Example 18] (cyclo(AGGICSRSLPPICIPD); disulfide 5-13), the IC50 turned out to be 50 nM at human MASP1 and 15 nM at human MASP2.
On the same counts, the results for `CC[C@H](C)[C@@H]1NC(=O)CNC(=O)CNC(=O)[C@@H](C)NC(=O)[C@H](CC(=O)O)NC(=O)[C@@H]2CCCN2C(=O)[C@H]([C@@H](C)CC)NC(=O)[C@@H]2CSSC[C@H](NC1=O)C(=O)N[C@@H](CO)C(=O)N[C@@H](CCCNC(=N)N)C(=O)N[C@@H](CO)C(=O)N[C@@H](CC(C)C)C(=O)N1CCC[C@H]1C(=O)N1CCC[C@H]1C(=O)N[C@@H]([C@@H](C)CC)C(=O)N2` [Example 19] (cyclo(CIPD[dA]GGICSRSLPPI); disulfide 1-9) are 49 nM and 210 nM.
The like results for `CC[C@H](C)[C@@H]1NC(=O)CNC(=O)CNC(=O)[C@@H](N)CNC(=O)[C@H](CC(=O)O)NC(=O)[C@@H]2CCCN2C(=O)[C@H]([C@@H](C)CC)NC(=O)[C@@H]2CSSC[C@H](NC1=O)C(=O)N[C@@H](CO)C(=O)N[C@@H](CCCNC(=N)N)C(=O)N[C@@H](CO)C(=O)N[C@@H](CC(C)C)C(=O)N1CCC[C@H]1C(=O)N1CCC[C@H]1C(=O)N[C@@H]([C@@H](C)CC)C(=O)N2` [Example 20] (H-[Dap]GGICSRSLPPICIPD; lactam 1-C; disulfide 5-13) were, in that order, 55 nM and 110 nM.
The like results for `CC[C@H](C)[C@@H]1NC(=O)CNC(=O)[C@H](CO)NC(=O)CNC(=O)[C@H](CO)NC(=O)[C@H](CC(=O)O)NC(=O)[C@@H]2CCCN2C(=O)[C@H]([C@@H](C)CC)NC(=O)[C@@H]2CSSC[C@H](NC1=O)C(=O)N[C@@H](CO)C(=O)N[C@@H](CCCNC(=N)N)C(=O)N[C@@H](CO)C(=O)N[C@@H](CC(C)C)C(=O)N1CCC[C@H]1C(=O)N1CCC[C@H]1C(=O)N[C@@H]([C@@H](C)CC)C(=O)N2` [Example 21] (cyclo(CIPDSGSGICSRSLPPI); disulfide 1-10) were, in that order, 170 nM and 120 nM.
On to `CC[C@H](C)[C@@H]1NC(=O)CNC(=O)[C@@H](N)CCCCNC(=O)[C@H](CC(=O)O)NC(=O)[C@@H]2CCCN2C(=O)[C@H]([C@@H](C)CC)NC(=O)[C@@H]2CSSC[C@H](NC1=O)C(=O)N[C@@H](CO)C(=O)N[C@@H](CCCNC(=N)N)C(=O)N[C@@H](CO)C(=O)N[C@@H](CC(C)C)C(=O)N1CCC[C@H]1C(=O)N1CCC[C@H]1C(=O)N[C@@H]([C@@H](C)CC)C(=O)N2` [Example 22] (H-KGICSRSLPPICIPD; lactam 1-C; disulfide 4-12), for which the values for the IC50 on human MASP1 and at human MASP2 were 190 nM and 91 nM, respectively.
The like results for `CC[C@H](C)[C@@H]1NC(=O)CNC(=O)CCOCCOCCNC(=O)[C@H](CC(=O)O)NC(=O)[C@@H]2CCCN2C(=O)[C@H]([C@@H](C)CC)NC(=O)[C@@H]2CSSC[C@H](NC1=O)C(=O)N[C@@H](CO)C(=O)N[C@@H](CCCNC(=N)N)C(=O)N[C@@H](CO)C(=O)N[C@@H](CC(C)C)C(=O)N1CCC[C@H]1C(=O)N1CCC[C@H]1C(=O)N[C@@H]([C@@H](C)CC)C(=O)N2` [Example 24] (cyclo(CIPD[PEG2]GICSRSLPPI); disulfide 1-8) were, in that order, 110 nM and 210 nM.
